# Patent US6423689B1, “Peptidyl calcium channel blockers” (Warner-Lambert Company, priority 1997, dated 2002)
# Columns and labels:
# [1] = target: T1, N-type Ca2+ channels in IMR-32 cells (Homo sapiens, UniProt Q00975); assay: Inhibition of N-type calcium flux in IMR-32 cells (Indo-1 fluorescence, nitrendipine present); assay type: cell-based; settings: for inhibition at 1 µM / inhibition at 10 µM: IMR-32; for IC50: IMR-32 cells, 5 μM nitrendipine, K+ depolarization
# T1 construct: host or cells: IMR-32 cells, differentiated with dibutyryl cAMP and bromodeoxyuridine
# How it was run: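 With L-type flux blocked by 5 μM nitrendipine, N-type Ca2+ entry was read as the Indo-1 emission ratio (400/490 nm, excitation 350 nm) at 30° C after KCl depolarization.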
# [2] = test system: K+ channels in superior cervical ganglion (SCG) neurons; assay: Whole-cell voltage clamp, K+ current in SCG neurons; assay type: cell-based, rat; settings: for IC50: read-out: Inhibition of K+ Current IC50
# Procedure: (§1) Electrophysiological techniques were used to measure the effects of experimental compounds on voltage-gated Ca^2+, Na^+ and K^+ channels. […] Sodium and potassium channel currents were measured from acutely dissociated SCG neurons.
# (§2) Dissociation of the neurons from the ganglia was accomplished using a 30 to 45 minute treatment in 0.25% trypsin, similar to methods outlined in Higgins, et al. [see Higgins D., et al. “Tissue culture of mammalian autonomic neurons.” In Banker G. and Goslin K. (Eds), Culturing Nerve Cells, Cambridge, Mass., MIT Press (1991)].
# (§3) Ca^2+, Na^+ and K^+ channel currents in SCG neurons were measured using conventional single electrode whole-cell voltage-clamp techniques, outlined in Hamill, et al., (see Hamill O.P., et al. “Improved patch-clamp techniques for high resolution current recordings from cells and cell-free membrane patches”. Pflugers Arch. 1981;391:85-100) For Ca^2+ channel experiments, the external bathing solution contained tetraethylammonium chloride (100 mM), choline chloride (52 mM), NaCl (15 mM), HEPES (10 mM), glucose (5.6 mM), CaCl2 (2 mM), and MgCl2 (0.8 mM) pH 7.35 with KOH; with the internal pipette solution containing cesium methane sulfonate (140 mM), EGTA (10 mM), and HEPES (10 mM), supplemented with 5 mM Mg^2+ -ATP on the day of the experiment, pH 7.4 with CsOH. For Na^+ and K^+ channel experiments, the external bathing solution contained NaCl (150 mM), KCl (5 mM), MgCl2 (1.1 mM), CaCl2 (2.6 mM), Na-HEPES (10 mM), and glucose (10 mM), pH 7.4; with the internal pipette solution containing KCl (80 mM), K-gluconate (50 mM), HEPES (10 mM), and EGTA (10 mM), pH 7.4 with KOH. Experimental compounds were diluted into the external solution and applied to the soma of cells by local perfusion from large diameter (20-50 μm) glass micropipettes or from a U-tube applicator.
# (§4) For Na^+ and K^+ channel currents, following the determination of the I/V relationship for each cell in control solution, currents were evoked from a holding potential between −65 and −55 mV by stepping every 10 sec to a test potential of either 0 mV for Na^+ or +50 mV for K^+ current for a duration of 35 msec. Peak inward current was measured for Na^+ and sustained current for K^+ channel currents. […] Test compounds were applied until steady-state block was achieved. Data were expressed as percent inhibition of control amplitudes for Na^+ and K^+ channel currents.
# [3] = test system: Na+ channels in superior cervical ganglion (SCG) neurons; assay: Whole-cell voltage clamp, Na+ current in SCG neurons; assay type: cell-based, rat; settings: for IC50: read-out: Inhibition of Na+ Current IC50
# Procedure: as §1, §2, §3, §4
# [4] = target: T2, N-type Ca2+ channels in superior cervical ganglion (SCG) neurons (Rattus norvegicus, UniProt Q02294); assay: Whole-cell voltage clamp, N-type Ca2+ current in SCG neurons; assay type: cell-based; settings: for IC50: read-out: Inhibition of N-type Ca2+ Current IC50
# T2 construct: from tissue
# T2 sequence (Q02294 whole entry): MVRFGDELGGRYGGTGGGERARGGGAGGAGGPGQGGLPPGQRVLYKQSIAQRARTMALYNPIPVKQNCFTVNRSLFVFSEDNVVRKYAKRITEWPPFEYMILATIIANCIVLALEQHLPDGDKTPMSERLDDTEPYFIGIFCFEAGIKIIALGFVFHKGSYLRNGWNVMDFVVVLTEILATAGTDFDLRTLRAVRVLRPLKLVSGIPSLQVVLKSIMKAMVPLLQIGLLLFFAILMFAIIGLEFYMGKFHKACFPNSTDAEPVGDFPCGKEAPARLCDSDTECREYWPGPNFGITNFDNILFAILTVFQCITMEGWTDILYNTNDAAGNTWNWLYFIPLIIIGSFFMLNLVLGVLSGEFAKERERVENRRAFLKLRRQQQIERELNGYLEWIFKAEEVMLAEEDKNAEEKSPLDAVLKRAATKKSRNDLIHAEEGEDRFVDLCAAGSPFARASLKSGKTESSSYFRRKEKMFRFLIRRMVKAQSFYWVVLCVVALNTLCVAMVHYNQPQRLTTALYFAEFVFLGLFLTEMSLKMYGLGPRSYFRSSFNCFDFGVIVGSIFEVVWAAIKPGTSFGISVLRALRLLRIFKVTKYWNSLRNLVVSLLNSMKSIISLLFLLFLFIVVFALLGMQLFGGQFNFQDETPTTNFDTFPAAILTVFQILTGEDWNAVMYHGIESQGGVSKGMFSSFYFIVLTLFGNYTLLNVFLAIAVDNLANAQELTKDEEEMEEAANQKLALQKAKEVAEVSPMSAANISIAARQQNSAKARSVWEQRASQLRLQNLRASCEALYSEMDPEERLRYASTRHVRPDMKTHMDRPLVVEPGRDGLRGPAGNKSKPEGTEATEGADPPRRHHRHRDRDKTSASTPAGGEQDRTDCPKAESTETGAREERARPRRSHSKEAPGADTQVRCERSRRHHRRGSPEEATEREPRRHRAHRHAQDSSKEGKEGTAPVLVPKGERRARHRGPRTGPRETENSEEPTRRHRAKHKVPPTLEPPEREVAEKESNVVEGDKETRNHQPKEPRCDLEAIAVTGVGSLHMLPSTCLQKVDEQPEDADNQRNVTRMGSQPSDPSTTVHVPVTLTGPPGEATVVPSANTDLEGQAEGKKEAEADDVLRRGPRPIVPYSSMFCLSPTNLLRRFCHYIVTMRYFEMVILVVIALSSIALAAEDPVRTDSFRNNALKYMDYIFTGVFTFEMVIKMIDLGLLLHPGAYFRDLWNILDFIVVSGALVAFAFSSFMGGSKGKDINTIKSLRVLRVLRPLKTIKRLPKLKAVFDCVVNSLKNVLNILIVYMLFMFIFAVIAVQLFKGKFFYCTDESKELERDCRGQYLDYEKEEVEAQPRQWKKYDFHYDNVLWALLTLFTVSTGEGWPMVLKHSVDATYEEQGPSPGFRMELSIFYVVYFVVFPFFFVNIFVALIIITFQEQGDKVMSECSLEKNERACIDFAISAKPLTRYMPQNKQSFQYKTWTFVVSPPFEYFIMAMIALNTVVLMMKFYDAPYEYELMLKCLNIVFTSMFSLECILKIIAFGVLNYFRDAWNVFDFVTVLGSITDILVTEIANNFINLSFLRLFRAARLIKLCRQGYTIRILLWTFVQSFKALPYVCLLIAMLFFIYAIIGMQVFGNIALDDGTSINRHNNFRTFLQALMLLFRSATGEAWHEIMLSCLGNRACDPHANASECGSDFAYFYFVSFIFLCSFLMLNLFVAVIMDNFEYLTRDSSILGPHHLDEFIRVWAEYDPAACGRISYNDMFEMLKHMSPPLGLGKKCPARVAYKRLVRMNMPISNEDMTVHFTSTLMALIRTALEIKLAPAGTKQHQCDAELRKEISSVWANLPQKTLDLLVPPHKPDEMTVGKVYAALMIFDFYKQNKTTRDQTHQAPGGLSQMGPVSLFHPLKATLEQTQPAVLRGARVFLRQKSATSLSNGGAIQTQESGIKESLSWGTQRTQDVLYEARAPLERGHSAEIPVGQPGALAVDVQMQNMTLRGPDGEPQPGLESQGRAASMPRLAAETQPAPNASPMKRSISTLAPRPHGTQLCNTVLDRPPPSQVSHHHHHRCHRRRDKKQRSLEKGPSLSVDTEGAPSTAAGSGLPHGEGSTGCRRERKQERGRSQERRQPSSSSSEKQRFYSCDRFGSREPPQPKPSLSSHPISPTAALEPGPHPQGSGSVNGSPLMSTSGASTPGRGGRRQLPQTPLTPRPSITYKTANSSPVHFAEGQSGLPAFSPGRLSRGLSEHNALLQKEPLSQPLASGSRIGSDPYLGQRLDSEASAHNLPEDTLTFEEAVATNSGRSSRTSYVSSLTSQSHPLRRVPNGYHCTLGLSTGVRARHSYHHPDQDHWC
# T2 sequence (P54290 25-944 partner limits assumed): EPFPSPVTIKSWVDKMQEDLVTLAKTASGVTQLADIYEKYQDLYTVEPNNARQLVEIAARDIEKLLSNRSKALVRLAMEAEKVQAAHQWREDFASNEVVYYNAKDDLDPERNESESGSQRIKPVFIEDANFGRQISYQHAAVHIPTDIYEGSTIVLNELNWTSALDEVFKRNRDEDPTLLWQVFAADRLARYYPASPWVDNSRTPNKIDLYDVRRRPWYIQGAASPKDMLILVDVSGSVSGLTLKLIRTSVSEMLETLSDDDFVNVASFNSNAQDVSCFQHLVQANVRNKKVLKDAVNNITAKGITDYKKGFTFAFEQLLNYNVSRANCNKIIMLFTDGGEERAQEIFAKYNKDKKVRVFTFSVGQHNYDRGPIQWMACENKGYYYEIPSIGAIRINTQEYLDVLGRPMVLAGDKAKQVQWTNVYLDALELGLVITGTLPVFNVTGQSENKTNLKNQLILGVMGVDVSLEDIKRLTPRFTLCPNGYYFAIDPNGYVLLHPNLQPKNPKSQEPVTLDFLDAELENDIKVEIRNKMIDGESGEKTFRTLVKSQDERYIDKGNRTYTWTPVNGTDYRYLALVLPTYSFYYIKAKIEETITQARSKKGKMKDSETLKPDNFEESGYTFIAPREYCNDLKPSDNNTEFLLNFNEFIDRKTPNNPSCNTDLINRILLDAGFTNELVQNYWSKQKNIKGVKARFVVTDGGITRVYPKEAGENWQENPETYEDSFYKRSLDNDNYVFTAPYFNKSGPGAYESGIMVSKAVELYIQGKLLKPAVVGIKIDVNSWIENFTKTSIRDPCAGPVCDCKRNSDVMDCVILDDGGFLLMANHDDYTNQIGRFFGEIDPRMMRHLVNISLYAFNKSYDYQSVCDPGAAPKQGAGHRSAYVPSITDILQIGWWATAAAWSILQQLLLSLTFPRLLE
# T2 sequence (P54290 945-1091 partner limits assumed): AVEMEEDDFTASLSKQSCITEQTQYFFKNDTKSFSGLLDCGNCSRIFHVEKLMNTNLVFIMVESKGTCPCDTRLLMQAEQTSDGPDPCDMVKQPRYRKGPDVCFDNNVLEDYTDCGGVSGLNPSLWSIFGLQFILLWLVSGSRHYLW
# T2 sequence (P54287 whole entry partner): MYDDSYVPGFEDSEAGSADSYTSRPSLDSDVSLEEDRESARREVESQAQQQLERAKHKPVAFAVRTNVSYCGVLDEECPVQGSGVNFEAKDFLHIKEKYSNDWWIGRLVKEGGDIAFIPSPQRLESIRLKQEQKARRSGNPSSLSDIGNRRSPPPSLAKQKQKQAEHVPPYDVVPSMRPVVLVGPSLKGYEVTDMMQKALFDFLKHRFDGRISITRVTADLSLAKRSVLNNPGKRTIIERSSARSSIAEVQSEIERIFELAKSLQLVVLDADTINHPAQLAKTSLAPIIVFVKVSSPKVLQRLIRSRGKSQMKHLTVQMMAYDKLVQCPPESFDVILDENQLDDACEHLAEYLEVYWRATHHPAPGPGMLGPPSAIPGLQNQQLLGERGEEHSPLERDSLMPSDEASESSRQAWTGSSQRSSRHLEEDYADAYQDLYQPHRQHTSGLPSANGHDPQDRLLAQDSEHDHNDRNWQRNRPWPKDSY
# Procedure: as §1, §2, §3
# After obtaining a whole-cell recording, Ca^2+ channels were elicited by stepping to test potentials between −40 and +20 mV for 120 msec from the holding potential of −90 mV to determine if the amplitude of the current and clamp control were adequate for evaluation of drug effects. Ca^2+ channel currents were evoked by stepping from a holding potentials between −65 mV and −−55 mV to a test potential of +20 mV for 150 msec every 40 seconds. The amplitude of the Ca^2+ channel currents were compared before and during drug application and drug effects expressed as percent inhibition of the amplitude of control currents.
Structure (SMILES),inhibition at 1 µM [1] [%],inhibition at 10 µM [1] [%],IC50 [1] [nM],melting point [°C],Inhibition of Calcium Flux in IMR-32 Cells % Inhibition at 1 μM [1] [%],"Inhibition of N-type Ca2+ Current, % Inhibition at 10 μM [4] [%]",Inhibition of Calcium Flux in IMR-32 Cells % Inhibition at 10 μM ([1]; 10 μM) [%],IC50 [2] [nM],IC50 [3] [nM],inhibition at 10 µM [4] [%],IC50 [4] [nM],"Inhibition of K+ Current, % Inhibition at 10 μM [2] [%]","Inhibition of Na+ Current, % Inhibition at 10 μM [3] [%]"
"COc1ccc(C[C@H](NC(=O)[C@H](CC(C)C)NC(=O)N2CCCCCC2)C(=O)OC(C)(C)C)cc1 [Example 13, [S-(R*,R*)]-2-{2-[(Azepane-1-carbonyl)-amino]-4-methyl-pentanoylamino}-3-(4-methoxy-phenyl)-propionic acid tert-butyl ester]",40,86,1700,105 to 106,–,–,–,–,–,–,–,–,–
"CC(C)C[C@H](NC(=O)N1CCN(c2ccccc2)CC1)C(=O)N[C@@H](Cc1ccc(OCc2ccccc2)cc1)C(=O)OC(C)(C)C [Example 10, [S-(R*,R*)]-3-(4-Benzyloxy-phenyl)-2-{4-methyl-2-[(4-phenyl-piperazine-1-carbonyl)-amino]-pentanoylamino}-propionic acid tert-butyl ester]",46,73,2100,67 to 69,–,–,–,–,–,–,–,–,–
"CC(C)C[C@H](NC(=O)N1CCN(C)CC1)C(=O)N[C@@H](Cc1ccc(OCc2ccccc2)cc1)C(=O)OC(C)(C)C (relative stereo) [Example 9, [S-(R*,R*)]-3-(4-Benzyloxy-phenyl)-2-{4-methyl-2-[(4-methyl-piperazine-1-carbonyl)-amino]-pentanoylamino}-propionic acid tert-butyl ester]",–,–,–,–,28,81,–,–,–,–,–,61,44
"CC(C)C[C@H](NC(=O)N1CCCCCC1)C(=O)N[C@@H](Cc1ccc(OCc2cccc(NC(=O)OC(C)(C)C)c2)cc1)C(=O)OC(C)(C)C [Example 28, [S-(R*,R*)]-2-{2-[(Azepane-1-carbonyl)-amino]-4-methyl-pentanoylamino}-3-[4-(3-tert-butoxycarbonylamino-benzyloxy)-phenyl]-propionic acid tert-butyl ester]",42,65,1800,–,–,–,–,–,–,40,–,11,5
"CC(C)C[C@@H](NC(=O)N1CCCCCC1)C(=O)N[C@@H](Cc1ccc(OCc2ccccc2)cc1)C(=O)OC(C)(C)C [Example 3, 2(S)-{2(R)-[(Azepane-1-carbonyl)-amino]-4-methyl-pentanoylamino}-3-(4-benzyloxy-phenyl)-propionic acid tert-butyl ester]",53,90,990,–,–,–,–,–,–,69,–,39,12
"CC(C)C[C@H](NC(=O)N1CCCCCC1)C(=O)N[C@H](Cc1ccc(OCc2ccccc2)cc1)C(=O)OC(C)(C)C [Example 2, 2(R)-{2(S)-[(Azepane-1-carbonyl)-amino]-4-methyl-pentanoylamino}-3-(4-benzyloxy-phenyl)-propionic acid tert-butyl ester]",38,90,1700,–,–,–,–,–,–,32,–,41,35

# Further lines, with some results ahead:
inhibition at 1 µM [1] [%],inhibition at 10 µM [1] [%],IC50 [1] [nM],melting point [°C],Inhibition of Calcium Flux in IMR-32 Cells % Inhibition at 1 μM [1] [%],"Inhibition of N-type Ca2+ Current, % Inhibition at 10 μM [4] [%]",Inhibition of Calcium Flux in IMR-32 Cells % Inhibition at 10 μM ([1]; 10 μM) [%],IC50 [2] [nM],IC50 [3] [nM],inhibition at 10 µM [4] [%],IC50 [4] [nM],Structure (SMILES),"Inhibition of K+ Current, % Inhibition at 10 μM [2] [%]","Inhibition of Na+ Current, % Inhibition at 10 μM [3] [%]"
42,63,1300,161 to 162,–,–,–,–,–,–,–,"CC(C)C[C@H](NC(=S)NC1CCCCC1)C(=O)N[C@@H](Cc1ccc(OCc2ccccc2)cc1)C(=O)OC(C)(C)C [Example 47, [S-(R*,R*)]-3-(4-benzyloxy-phenyl)-2-[2-(3-cyclohexyl-thioureido)-4-methyl-pentanoylamino}-propionic acid, tert-butyl ester]",–,–
52,81,1200,66 to 67,–,–,–,–,–,–,–,"CC(C)C[C@H](NC(=S)Nc1ccccc1Cl)C(=O)N[C@@H](Cc1ccc(OCc2ccccc2)cc1)C(=O)OC(C)(C)C [Example 48, [S-(R*,R*)]-3-(4-Benzyloxy-phenyl)-2-{2-[3-(2-chloro-phenyl)-thioureido]-4-methyl-pentanoylamino}-propionic acid tert-butyl ester]",–,–
48,83,940,148 to 149,–,–,–,–,–,–,–,"CC(C)C[C@H](NS(=O)(=O)c1ccc(Br)cc1)C(=O)N[C@@H](Cc1ccc(OCc2ccccc2)cc1)C(=O)OC(C)(C)C [Example 38, [S-(R*,R*)]-2-{2-[(4-Bromobenzene-1-sulfonyl-carbonyl)-amino]-4-methyl-pentanoylamino-3-(4-benzyloxyphenyl)-propionic acid, tert-butyl ester]",–,–
–,–,270,–,77,45,99,–,–,–,–,"CCCCNC(=S)N[C@@H](CC(C)C)C(=O)N[C@@H](Cc1ccc(OCc2ccccc2)cc1)C(=O)OC(C)(C)C (relative stereo) [Example 49, [S-(R*,R*)]-3-(4-Benzyloxy-phenyl)-2-[2-(3-butyl-thioureido)-4-methyl-pentanoylamino]-propionic acid tert-butyl ester]",−3,6
–,–,720,–,–,–,–,5700,42300,61,4370,"CC(C)CC(NC(=O)N1CCCCCC1)C(=O)NC(Cc1ccc(OCc2ccccc2)cc1)C(=O)NC(C)C(C)C (stereo not shown) [Example 191, Azepane-1-carboxylic acid {1-[2-(4-benzyloxy-phenyl)-1-(1,2-dimethyl-propylcarbamoyl)-ethylcarbamoyl]-3-methyl-butyl}-amide]",64,38
–,–,3600,–,–,–,–,–,6900,84,2330,"CC(C)C[C@H](NC(=O)N1CCCCCC1)C(=O)N[C@@H](Cc1ccc(OCc2ccccc2)cc1)C(=O)NCCO [Example 165, [S-(R*,R*)]-Azepane-1-carboxylic acid {1-[2-(4-benzyloxy-phenyl)-1-(2-hydroxy-ethylcarbamoyl)-ethylcarbamoyl]-3-methyl-butyl}-amide]",86,46
–,–,920,–,–,58,–,–,–,–,2840,"CC(C)CC(NC(=O)N1CCCCCC1)C(=O)NC(Cc1ccc(OCc2ccccc2)cc1)C(=O)NC(C)C(C)C (stereo not shown) [Example 192, Azepane-1-carboxylic acid {1-[2-(4-benzyloxy-phenyl)-1-(1,2-dimethylpropylcarbamoyl)-ethylcarbamoyl]-3-methyl-butyl}-amide]",58,26
–,–,2600,–,–,–,–,490,4850,54,1190,"CC(C)C[C@H](NC(=O)N1CCCCCC1)C(=O)N[C@@H](Cc1ccc(OCc2ccccc2)cc1)C(=O)NCCCNC1CCCCC1 [Example 184, [S-(R*,R*)]-Azepane-1-carboxylic acid {1-[2-(4-benzyloxy-phenyl)-1-(3-cyclohexylamino-propylcarbamoyl)-ethylcarbamoyl]-3-methyl-butyl}-amide]",89,82
